Test results published in paper PMC12732581, “Molecular and System-Level Characterization of MMP12 Suppression in Lung Cancer: A Combined Bioinformatics and Molecular Approach” (International Journal of Molecular Sciences, 2025).

Tests used:
recombinant human MMP12 = target: T1, recombinant human MMP12 (Homo sapiens, UniProt P39900); test: MMP12 colorimetric thiopeptide enzyme inhibition assay (Abcam); format: biochemical; conditions: at 50 µM
T1 construct: purchased Abcam
Method: The enzyme inhibition potential of synthesized p-chlorocinnamic acid derivatives against MMP12 was assessed using the Abcam colorimetric assay.
The inhibitory activity of the newly synthesized compounds against MMP12 was assessed using a previously established enzymatic assay protocol, as described in our earlier study. In brief, we conducted a colorimetric thiopeptide-based inhibition assay for MMP12 using recombinant human MMP12 and the reference inhibitor NNGH as a positive control. The IC50 values were calculated using GraphPad Prism version 9 (GraphPad Software, San Diego, CA, USA).

A549 lung cancer cells = test: MTT cell viability assay, A549; format: cell-based, human
Method: (§1) To evaluate the impact of MMP12 inhibitors on lung cancer cell lines, an MTT assay was performed on A549, H1299, and H661 cells exposed to varying concentrations of inhibitors over 48, 72, and 96 h.
(§2) The lung cancer cell lines referenced as A549, H1299, and H661 were acquired from the American Type Culture Collection (ATCC, Manassas, VA, USA). Fibroblast cells of dermal origin were used as a model for normal human tissue, which were also purchased from ATCC. A549, H1299, and H661 cells were maintained in the RPMI culture medium, while fibroblast cells were maintained in the DMEM high glucose culture medium. Both RPMI and DMEM culture media were supplemented with 100 U/mL penicillin, 0.1 mg/mL streptomycin to prevent bacterial growth, 10% FBS to promote cell growth, and 2 mM L-glutamine as an energy source.
(§3) The 3-(4,5-dimethylthiazol-2-yl)-2,5-diphenyltetrazolium bromide (MTT) assay was employed to evaluate cell proliferation as previously noted. All experiments were performed in triplicate wells and were repeated at least twice independently. The percentage of the relative cell viability of treated cells versus the untreated cells (negative controls) was calculated using the following formula in Equation (1) (cell viability calculation):(1) Cell viability%=optical density of treated cells/optical density of untreated cells×100

H1299 lung cancer cells = test: MTT cell viability assay, H1299; format: cell-based, human
Method: as §1, §2, §3

H661 lung cancer cells = test: MTT cell viability assay, H661; format: cell-based, human
Method: as §1, §2, §3

T1 sequence (P39900 106-470): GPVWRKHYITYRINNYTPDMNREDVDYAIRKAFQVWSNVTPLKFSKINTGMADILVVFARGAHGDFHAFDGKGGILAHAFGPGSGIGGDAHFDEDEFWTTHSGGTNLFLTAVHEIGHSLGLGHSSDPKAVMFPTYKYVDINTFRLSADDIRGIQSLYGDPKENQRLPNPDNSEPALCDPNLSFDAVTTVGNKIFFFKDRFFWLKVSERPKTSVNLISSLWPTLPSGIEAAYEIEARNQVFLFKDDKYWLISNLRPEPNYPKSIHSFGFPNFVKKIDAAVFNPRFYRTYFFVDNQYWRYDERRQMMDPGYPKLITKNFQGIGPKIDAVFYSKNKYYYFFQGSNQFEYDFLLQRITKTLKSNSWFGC

MMP12 enzyme inhibition (recombinant human MMP12)	IC50 (A549 lung cancer cells; A549, 48 h)	IC50 (A549 lung cancer cells; A549, 72 h)	IC50 (A549 lung cancer cells; A549, 96 h)	IC50 (H1299 lung cancer cells; H1299, 48 h)	IC50 (H1299 lung cancer cells; H1299, 72 h)	IC50 (H1299 lung cancer cells; H1299, 96 h)	IC50 (H661 lung cancer cells; H661, 48 h)	IC50 (H661 lung cancer cells; H661, 72 h)	IC50 (H661 lung cancer cells; H661, 96 h)	Structure (SMILES)
23.3%	963 µM	396 µM	168 µM	616 µM	302 µM	254 µM	562 µM	319 µM	146 µM	Cc1ccc(NC(=O)/C=C/c2ccc(Cl)cc2)c(C(=O)c2ccccc2)c1 [Compound C4]
11.5%	> 1000 µM	–	865 µM	636 µM	449 µM	419 µM	489 µM	366 µM	226 µM	O=C(/C=C/c1ccc(Cl)cc1)Nc1ccccc1C(=O)c1ccccc1 [Compound C5]
21.3%	> 1000 µM	> 1000 µM	830 µM	361 µM	268 µM	256 µM	448 µM	260 µM	270 µM	Cc1ccc(C(=O)c2ccccc2NC(=O)/C=C/c2ccc(Cl)cc2)cc1 [Compound C6]

Structure (SMILES)	MMP12 enzyme inhibition (recombinant human MMP12)	IC50 (A549 lung cancer cells; A549, 48 h)	IC50 (A549 lung cancer cells; A549, 72 h)	IC50 (A549 lung cancer cells; A549, 96 h)	IC50 (H1299 lung cancer cells; H1299, 48 h)	IC50 (H1299 lung cancer cells; H1299, 72 h)	IC50 (H1299 lung cancer cells; H1299, 96 h)	IC50 (H661 lung cancer cells; H661, 48 h)	IC50 (H661 lung cancer cells; H661, 72 h)	IC50 (H661 lung cancer cells; H661, 96 h)
O=C(/C=C/c1ccc(Cl)cc1)Nc1ccc(Cl)cc1C(=O)c1ccccc1 [Compound C3]	23.5%	251 µM	269 µM	999 µM	557 µM	401 µM	338 µM	571 µM	301 µM	203 µM
